Among the data in PubChem BioAssay AID330 (DTP/NCI, 2004) are T/C values, retold here.

In this experiment the test system is P388 leukemia ip, CD2F1 mice, survival T/C. Put plainly: NCI In Vivo Anticancer Drug Screen. Data for tumor model P388 Leukemia (intraperitoneal) in CD2F1 (CDF1) mice. The note with it: endpoint: median survival time, higher = longer survival. The gist of the method:
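Mice carrying the transplanted tumor received test compound or vehicle. Survival was recorded in each group, and the value is the treated-group measurement divided by that of the vehicle-treated control group.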

The mark [1] stands for this setting: dose: 25.0 mg/kg/injection, schedule: Q01DX009 (ip), vehicle: saline.
[2] abbreviates: dose: 50.0 mg/kg/injection, schedule: Q01DX009 (ip), vehicle: saline.
Setting [3] is: dose: 100.0 mg/kg/injection, schedule: Q01DX009 (ip), vehicle: saline.
The mark [4] stands for this setting: dose: 25.0 mg/kg/injection, schedule: Q01DX005 (ip), vehicle: Klucel (hydroxypropylcellulose) (HPC).
The mark [5] stands for this setting: dose: 100.0 mg/kg/injection, schedule: Q04DX003 (ip), vehicle: saline sonified.
Setting [6] is: dose: 12.5 mg/kg/injection, schedule: Q01DX009 (ip), vehicle: Klucel (hydroxypropylcellulose) (HPC).
[7] abbreviates: dose: 25.0 mg/kg/injection, schedule: Q01DX009 (ip), vehicle: Klucel (hydroxypropylcellulose) (HPC).
Where [8] appears, read: dose: 60.0 mg/kg/injection, schedule: Q01DX005 (ip), vehicle: saline with Tween-80.
[9] abbreviates: dose: 120.0 mg/kg/injection, schedule: Q01DX005 (ip), vehicle: saline with Tween-80.
Where [10] appears, read: dose: 50.0 mg/kg/injection, schedule: Q01DX005 (ip), vehicle: saline with Tween-80.

“And” between values parts separate entries of the source, which are not always exact repeats. Equal entries are not always repeated. Inconclusive results and toxic doses are left out.

On to `Brc1ccc2c(NCCCCCCCCNc3c4ccccc4nc4cc(Br)ccc34)c3ccccc3nc2c1`, for which the T/C runs as follows: (dose: 0.32 mg/kg/injection, schedule: Q01DX009 (ip), vehicle: other) 100 % of control; (dose: 0.63 mg/kg/injection, schedule: Q01DX009 (ip), vehicle: other) 99 % of control; (dose: 1.25 mg/kg/injection, schedule: Q01DX009 (ip), vehicle: other) 107 % of control; (dose: 2.5 mg/kg/injection, schedule: Q01DX009 (ip), vehicle: other) 109 % of control; (dose: 5.0 mg/kg/injection, schedule: Q01DX009 (ip), vehicle: other) 96 % of control; (dose: 10.0 mg/kg/injection, schedule: Q01DX009 (ip), vehicle: other) 101 % of control.

Turning to `CCc1cc(-n2c3c(CC)c(=O)c(CC)cc-3nc3ccccc32)cc(CC)c1O`, the T/C is, setting by setting: under setting [1], 98 % of control; under setting [2], 109 % of control; under setting [3], 105 % of control.

For `[Cl][Pd][Cl].[NH-]C(CC(N)=O)C(=O)O` (stereo unspecified), the T/C runs as follows: (dose: 12.5 mg/kg/injection, schedule: Q01DX005 (ip), vehicle: Klucel (hydroxypropylcellulose) (HPC)) 101 % of control; under setting [4], 95 % of control; (dose: 50.0 mg/kg/injection, schedule: Q01DX005 (ip), vehicle: Klucel (hydroxypropylcellulose) (HPC)) 100 % of control and 113 % of control.

`NCC(=O)O.[Cl][Ga]([Cl])[Cl]`: the T/C (dose: 66.0 mg/kg/injection, schedule: Q01DX009 (ip), vehicle: saline) was 110 % of control; the T/C under setting [3] is 110 % of control; the T/C under setting [5] was 104 % of control; the T/C (dose: 150.0 mg/kg/injection, schedule: Q01DX009 (ip), vehicle: saline) was 120 % of control.

`CNC(=O)OCc1c(COC(=O)NC)c(-c2ccc(Cl)c(Cl)c2)n2c1CCC2`: the T/C is, setting by setting: under setting [6], 153 % of control; under setting [7], 160 % of control; (dose: 50.0 mg/kg/injection, schedule: Q01DX009 (ip), vehicle: Klucel (hydroxypropylcellulose) (HPC)) 155 % of control; (dose: 100.0 mg/kg/injection, schedule: Q01DX009 (ip), vehicle: Klucel (hydroxypropylcellulose) (HPC)) 188 % of control.

As to `O=c1cc(-c2ccccc2)[nH]c(=S)[nH]1`, the T/C by setting is: (dose: 50.0 mg/kg/injection, schedule: Q01DX001 (ip), vehicle: Klucel (hydroxypropylcellulose) (HPC)) 103 % of control; (dose: 100.0 mg/kg/injection, schedule: Q01DX001 (ip), vehicle: Klucel (hydroxypropylcellulose) (HPC)) 100 % of control; (dose: 200.0 mg/kg/injection, schedule: Q01DX001 (ip), vehicle: Klucel (hydroxypropylcellulose) (HPC)) 99 % of control; (dose: 400.0 mg/kg/injection, schedule: Q01DX001 (ip), vehicle: Klucel (hydroxypropylcellulose) (HPC)) 106 % of control.

As for `COc1ccc2nc3cc(Cl)ccc3c(SCC(=O)OCC(=O)[C@@]3(O)CC[C@H]4[C@@H]5CCC6=CC(=O)C=C[C@]6(C)[C@H]5C(=O)C[C@@]43C)c2c1`, the T/C is 118 % of control under setting [2]; 108 % of control under setting [3]; 110 % of control (dose: 200.0 mg/kg/injection, schedule: Q01DX009 (ip), vehicle: saline).

For `[CH3][Sn]([CH3])([Br])[Br].c1ccc(-c2nnc(-c3ccccn3)nc2-c2ccccc2)cc1`, the T/C (dose: 30.0 mg/kg/injection, schedule: Q01DX005 (ip), vehicle: Klucel (hydroxypropylcellulose) (HPC)) was 107 % of control; the T/C (dose: 60.0 mg/kg/injection, schedule: Q01DX005 (ip), vehicle: Klucel (hydroxypropylcellulose) (HPC)) was 113 % of control and 95 % of control; the T/C (dose: 120.0 mg/kg/injection, schedule: Q01DX005 (ip), vehicle: Klucel (hydroxypropylcellulose) (HPC)) was 100 % of control and 106 % of control.

On to `C=CCSc1ncnc2c1ncn2C1OC(CO)C(O)C1O` (stereo unspecified), for which the T/C is, setting by setting: under setting [5], 105 % of control; (dose: 200.0 mg/kg/injection, schedule: Q04DX003 (ip), vehicle: saline sonified) 115 % of control; (dose: 400.0 mg/kg/injection, schedule: Q04DX003 (ip), vehicle: saline sonified) 120 % of control.

For the compound `O=S1(=O)OCCO1`, the T/C is 106 % of control (dose: 12.5 mg/kg/injection, schedule: Q01DX005 (ip), vehicle: saline) and 108 % of control (dose: 25.0 mg/kg/injection, schedule: Q01DX005 (ip), vehicle: saline).

In the case of `COc1ccc(CSC(=S)Nc2ccc(C(F)(F)F)cc2)cc1`, the T/C (dose: 50.0 mg/kg/injection, schedule: Q01DX009 (ip), vehicle: suspension in saline) was 110 % of control; the T/C (dose: 100.0 mg/kg/injection, schedule: Q01DX009 (ip), vehicle: suspension in saline) was 101 % of control; the T/C (dose: 200.0 mg/kg/injection, schedule: Q01DX009 (ip), vehicle: suspension in saline) was 105 % of control.

Consider `Cc1[nH]c(=O)[nH]c(=O)c1/C=C/C(=O)NC(CO)CSC(C)C` (stereo unspecified), for which the T/C (dose: 50.0 mg/kg/injection, schedule: Q01DX009 (ip), vehicle: other) was 86 % of control; the T/C (dose: 200.0 mg/kg/injection, schedule: Q01DX009 (ip), vehicle: other) is 90 % of control; the T/C (dose: 400.0 mg/kg/injection, schedule: Q01DX009 (ip), vehicle: other) is 89 % of control.

Consider `CC(=O)Nc1cc(NC(C)=O)cc(N(CCCl)CCCl)c1`, for which the T/C was 118 % of control (dose: 3.13 mg/kg/injection, schedule: Q01DX009 (ip), vehicle: water); 151 % of control (dose: 12.5 mg/kg/injection, schedule: Q01DX009 (ip), vehicle: water); 162 % of control (dose: 16.5 mg/kg/injection, schedule: Q01DX009 (ip), vehicle: water); 154 % of control and 169 % of control and 196 % of control (dose: 25.0 mg/kg/injection, schedule: Q01DX009 (ip), vehicle: water); 122 % of control (dose: 37.5 mg/kg/injection, schedule: Q01DX009 (ip), vehicle: water).

For the compound `O=S(=O)(c1ccc2ccccc2c1)N(CCCCCN(S(=O)(=O)c1ccc2ccccc2c1)S(=O)(=O)c1ccc2ccccc2c1)S(=O)(=O)c1ccc2ccccc2c1`, the T/C under setting [8] is 104 % of control and the T/C under setting [9] was 94 % of control.

Regarding `CCOC(=O)C1(O)CC(O)C(O)C(O)C1OC` (stereo unspecified), the T/C (dose: 100.0 mg/kg/injection, schedule: Q01DX001 (ip), vehicle: saline with Tween-80) was 94 % of control; the T/C (dose: 200.0 mg/kg/injection, schedule: Q01DX001 (ip), vehicle: saline with Tween-80) was 92 % of control; the T/C (dose: 400.0 mg/kg/injection, schedule: Q01DX001 (ip), vehicle: saline with Tween-80) is 94 % of control.

On to `CCOc1ccc(N=C([Se])CC)cc1`, for which the T/C (dose: 6.25 mg/kg/injection, schedule: Q01DX009 (ip), vehicle: Klucel (hydroxypropylcellulose) (HPC)) was 109 % of control; the T/C under setting [6] is 102 % of control; the T/C under setting [7] is 92 % of control.

For `COc1cc2c(cc1OC)[C@H]1[C@H](C)c3ccc4c(c3CN1CC2)OCO4`, the T/C (dose: 12.5 mg/kg/injection, schedule: Q04DX002 (ip), vehicle: Klucel (hydroxypropylcellulose) (HPC)) is 97 % of control; the T/C (dose: 25.0 mg/kg/injection, schedule: Q04DX002 (ip), vehicle: Klucel (hydroxypropylcellulose) (HPC)) was 95 % of control; the T/C (dose: 50.0 mg/kg/injection, schedule: Q04DX002 (ip), vehicle: Klucel (hydroxypropylcellulose) (HPC)) was 103 % of control and 106 % of control.

In the case of `NC(Cc1ccc(O)cc1)C(=O)N/N=C/c1ccccc1O` (stereo unspecified), the T/C under setting [10] is 92 % of control; the T/C (dose: 100.0 mg/kg/injection, schedule: Q01DX005 (ip), vehicle: saline with Tween-80) is 90 % of control; the T/C (dose: 200.0 mg/kg/injection, schedule: Q01DX005 (ip), vehicle: saline with Tween-80) is 113 % of control.

Take `C=C1C(=O)O[C@@H]2[C@@H]3O[C@@](C)(CC[C@H](OC(C)=O)[C@@H]3CO)C[C@@H](OC(=O)/C(=C\C)COC(C)=O)[C@@H]12`: the T/C under setting [4] was 101 % of control.

Consider `CC1(C)NC(=O)c2cccnc2S1`, for which the T/C runs as follows: under setting [8], 89 % of control; under setting [9], 97 % of control; (dose: 240.0 mg/kg/injection, schedule: Q01DX005 (ip), vehicle: saline with Tween-80) 99 % of control.

Consider `CCCCN(CCCC)C(=N)OC1CCCCC1`, for which the T/C is, setting by setting: (dose: 12.5 mg/kg/injection, schedule: Q01DX005 (ip), vehicle: saline with Tween-80) 102 % of control; (dose: 25.0 mg/kg/injection, schedule: Q01DX005 (ip), vehicle: saline with Tween-80) 100 % of control; under setting [10], 100 % of control.

In the case of `OCC1OC(Nc2ccccc2/C=N\O)C(O)C1O` (stereo unspecified), the T/C is, setting by setting: (dose: 12.5 mg/kg/injection, schedule: Q01DX009 (ip), vehicle: saline) 98 % of control; under setting [1], 107 % of control and 96 % of control; under setting [2], 99 % of control and 115 % of control; under setting [3], 98 % of control and 95 % of control.
